Experimental findings from patent publication EP2054020B1, “COSMETIC COMPOSITION COMPRISING PURINE AND/OR A PURINE DERIVATIVE AND TAURINE” (Henkel AG & Co. KGaA, priority 2006, dated 2008) are described below.

The subject of series [1] is HGF. In words: Growth factor release (ELISA) from reconstructed dermal papillae: HGF. Format: cell-based. As to conditions: 24 h, Taurin 0,5 %, Coffein 0,025 %; for HGF-Freisetzung Mittelwert: quadruplicates, compared with untreated Kontrolle = 100, spread in brackets; for Steigerung der HGF-Ausschüttung: increase over untreated control. The source says:
(§1) Die beiden Wachstumsfaktoren Hepatocyte Growth Factor (HGF) und Keratinocyte Growth Factor (KGF) sind wichtige Regulatoren des Haarzyklus. Bei potentiell wachstumsfördemden und den vorzeitigen Haarverlust vermindernden Substanzen kann von einer Steigerung eines der ausgeschütteten Faktoren ausgegangen werden. Die Ausschüttung von HGF sowie KGF kann mit Hilfe von kommerziell erhältlichen ELISA-Kits quantifiziert werden.
(§2) Die Ergebnisse finden sich in Tabelle 5 wieder. Tabelle 5: KGF- und HGF-Freisetzung in [%] nach Behandlung rekonstruierter dermaler Papillen im Vergleich zu unbehandelten Kontrollen.

Series [2] concerns IGFBP3. In words: Differential gene expression by qRT-PCR in dermal papilla cells: IGFBP3. In kind it is cell-based. As to conditions: 24 h, Taurin 0,5 %, Coffein 0,025 %; for IGFBP3 Mittelwert: untreated Kontrolle = 1, spread in brackets, 4 biological replicates, >=2 or <=0,5 signifikant, >=1,5 or <=0,6 tendenziell; for Expression von IGF-BP3: result in words. The source says:
(§3) Tabelle 2: Untersuchte Lösungen
Diesen Eigenschaften gegenüber steht die Expression von IGFBP-3. Dieses Genprodukt führt neben Anderen zu einer.Verschiebung des Zyklus von der Wachstums- zur Regressionsphase. Nach Applikation von Substanzen, die Effekte am biologisch aktiven Teil des Haares hervorrufen, könnte die Bestimmung der Veränderungen der Expression dieses Gens Aussagen über Haarwuchsstimulantien oder -inhibitoren liefern.
(§4) Die differentielle Genexpression wurde mittels quantitatitiver Reverse-Transkription Polymerase Kettenreaktion (qRT-PCR) bestimmt. Nach Anzucht der dermalen Papillenzellen wurden jeweils 4 biologische Replikate für 24 h mit den Lösungen gemäß Tabelle 2 inkubiert. Zur Durchführung der qRT-PCR wird zunächst mit Hilfe des RNeasy Mini Kits der Fa. Qiagen die RNA aus den dermalen Papillenzellen isoliert und mittels reverser Transkription in cDNA umgeschrieben. Bei der anschließenden PCR Reaktion, die mit Hilfe genspezifischer Primer für die jeweiligen haarrelevanten Gene durchgeführt wird und die der Amplifikation der gesuchten Genabschnitte dient, wird die Bildung der PCR-Produkte online über ein Fluoreszenzsignal detektiert. Das Fluoreszenzsignal ist dabei proportional zur Menge des gebildeten PCR-Produktes. Je stärker die Expression eines bestimmten Gens ist, desto größer ist die Menge an gebildetem PCR-Produkt und umso höher ist das Fluoreszenzsignal.
(§5) Zur Quantifizierung der Genexpression wird die unbehandelte Kontrolle gleich 1 gesetzt und die Expression der zu bestimmenden Gene darauf bezogen (x-fache Expression). Dabei werden Werte, die größer/gleich der 2-fachen Expression oder kleiner/gleich der 0,5-fachen Expression der unbehandelten Kontrolle sind als signifikant differentiell exprimiert eingestuft. Werte die größer/gleich der 1,5-fachen Expression oder kleiner/gleich der 0,6-fachen Expression der unbehandelten Kontrolle sind, werden als tendenziell differentiell exprimiert eingestuft. Die Ergebnisse sind in Tabelle 4 zusammengefasst.

Series [3] concerns KGF. In words: Growth factor release (ELISA) from reconstructed dermal papillae: KGF. Format: cell-based. As to conditions: 24 h, Taurin 0,5 %, Coffein 0,025 %; for KGF-Freisetzung Mittelwert: quadruplicates, compared with untreated Kontrolle = 100, spread in brackets; for Steigerung der KGF Ausschüttung: increase over untreated control.
Source text: as §1, §2

Series [4] relates to HGF. The series can be described thus: Differential gene expression by qRT-PCR in dermal papilla cells: HGF. In kind it is cell-based. As to conditions: 24 h, Taurin 0,5 %, Coffein 0,025 %; for HGF Mittelwert: untreated Kontrolle = 1, spread in brackets, 4 biological replicates, >=2 or <=0,5 signifikant, >=1,5 or <=0,6 tendenziell; for Expression von HGF: result in words.
Source text: as §3
(§6) Hepatocyte Growth Factor (HGF) und Keratinocyte Growth Factor (KGF) sind wichtige Wachstumsfaktoren, die von den dermalen Papillenzellen synthetisiert werden. Im Speziellen stimuliert HGF das Follikelwachstum und KGF die Keratinozytenproliferation. Entsprechend werden HGF und KGF in der Wachstumsphase vermehrt exprimiert.
as §4, §5

The subject of series [5] is KGF. In words: Differential gene expression by qRT-PCR in dermal papilla cells: KGF. As to conditions: 24 h, Taurin 0,5 %, Coffein 0,025 %; for KGF Mittelwert: untreated Kontrolle = 1, spread in brackets, 4 biological replicates, >=2 or <=0,5 signifikant, >=1,5 or <=0,6 tendenziell; for Expression von KGF: result in words. In kind it is cell-based.
Source text: as §3, §6, §4, §5

Series [6] concerns kultivierte dermale Papillenzellen.
Source text: Die Bestimmung der Freisetzung von Laktat-Dehydrogenase (LDH) kultivierter Zellen gibt Auskunft über die Schädigung der Zellmembran. In unbeschädigten Zellen ist LDH ausschließlich im Zytoplasma lokalisiert. Erst durch Schädigung der Zellmembran kann LDH in das umgebende Kulturmedium diffundieren. Mit Hilfe eines Substrat-gekoppelten kolorimetrischen Testsystems kann die Menge an freigesetztem LDH bestimmt werden.
Zur Bestimmung möglicher zellschädigender Nebeneffekte wurden kultivierte dermale Papillenzellen mit den in Tabelle 2 aufgeführten Lösungen kultiviert und nach Behandlung die Menge an LDH im Medium analysiert. Es wurde die Zeit bestimmt, die benötigt wird, um eine definierte Menge an Farbstoff umzusetzen. […] Hierbei gilt, dass Werte < 80 % auf mögliche zellschädigende Reaktionen hindeuten.

`Cn1c(=O)c2c(ncn2C)n(C)c1=O` [Coffein, reference compound]: in series [1], the “HGF-Freisetzung Mittelwert” value is 170 (35,8) % and the “Steigerung der HGF-Ausschüttung” value is on record as 70%. In addition, in series [2], the “IGFBP3 Mittelwert” value is given as 0,44 (0,07) x-fache Expression and the “Expression von IGF-BP3” value was “signifikante Deaktivierung”. Moreover, in series [3], the “KGF-Freisetzung Mittelwert” value is recorded as 119 (9,7) % and the “Steigerung der KGF Ausschüttung” value turned out to be 10%. For the same compound, in series [4], the “HGF Mittelwert” value is given as 1,62 (0,46) x-fache Expression and the “Expression von HGF” value is recorded as “tendenzielle Aktivierung”. In series [5], the “KGF Mittelwert” value is recorded as 1,44 (0,13) x-fache Expression and the “Expression von KGF” value was “tendenzielle Aktivierung”.

Regarding `NCCS(=O)(=O)O` [Taurin, 2-Aminoethansulfonsäure], in series [6], the “Freisetzung von LDH Mittelwert (%)” value is listed as 134,1% and the “zellschädigende Effekte” value is recorded as “weder nach Behandlung mit Taurin oder Coffein allein, noch mit einem Gemisch beider Verbindungen zellschädigende Effekte nachgewiesen werden können”. In addition, in series [1], the “HGF-Freisetzung Mittelwert” value was 152 (29,9) % and the “Steigerung der HGF-Ausschüttung” value is listed as 52%. Also, in series [2], the “IGFBP3 Mittelwert” value is listed as 1,41 (0,18) x-fache Expression and the “Expression von IGF-BP3” value was “keinen signifikanten Änderungen”. For the same compound, in series [3], the “KGF-Freisetzung Mittelwert” value is 110(11,5) % and the “Steigerung der KGF Ausschüttung” value was 19%. For the same compound, in series [4], the “HGF Mittelwert” value is given as 1,03 (0,30) x-fache Expression and the “Expression von HGF” value was “keinen signifikanten Änderungen”. Also, in series [5], the “KGF Mittelwert” value is on record as 1,08 (0,12) x-fache Expression and the “Expression von KGF” value is “keinen signifikanten Änderungen”.
